Experiments:
G250E BCR-Abl = molecular target: T1, G250E BCR-Abl (Homo sapiens, UniProt P00519, G250E); experiment: Antiproliferative effect on Ba/F3 cells expressing G250E BCR-Abl; type: cell-based; conditions: Ba/F3 cells expressing G250E mutant
T1 construct: expressed in transfected cells; host or cells: Ba/F3; the other entry of the earlier key: BCR (P11274, Breakpoint cluster region protein)
Method: (§1) 32D-p210 cells are plated into 96 well TC plates at a density of 15,000 cells per well. 50 μL of two fold serial dilutions of the test compound (Cmax is 40 μM) are added to each well (STI571 is included as a positive control). After incubating the cells for 48 hours at 37° C., 5% CO2, 15 μL of MTT (Promega) is added to each well and the cells are incubated for an additional 5 hours. The optical density at 570 nm is quantified spectrophotometrically and IC50 values, the concentration of compound required for 50% inhibition, determined from a dose response curve.
(§2) Compounds of the invention are tested for their antiproliferative effect on Ba/F3 cells expressing either wild type or the mutant forms of BCR-Abl (G250E, E255V, T315I, F317L, M351T) that confers resistance or diminished sensitivity to STI571. The antiproliferative effect of these compounds on the mutant-BCR-Abl expressing cells and on the non transformed cells were tested at 10, 3.3, 1.1 and 0.37 μM as described above (in media lacking IL3). The IC50 values of the compounds lacking toxicity on the untransformed cells were determined from the dose response curves obtained as describe above.

TrkB = molecular target: T2, TrkB (Homo sapiens, UniProt Q16620); experiment: Upstate KinaseProfiler radio-enzymatic filter binding assay, TrkB; type: biochemical; conditions: at a concentration of 10 μM; read-out: percentage inhibition of TrkB
T2 construct: purchased Upstate (KinaseProfiler panel)
T2 sequence (Q16620 32-822): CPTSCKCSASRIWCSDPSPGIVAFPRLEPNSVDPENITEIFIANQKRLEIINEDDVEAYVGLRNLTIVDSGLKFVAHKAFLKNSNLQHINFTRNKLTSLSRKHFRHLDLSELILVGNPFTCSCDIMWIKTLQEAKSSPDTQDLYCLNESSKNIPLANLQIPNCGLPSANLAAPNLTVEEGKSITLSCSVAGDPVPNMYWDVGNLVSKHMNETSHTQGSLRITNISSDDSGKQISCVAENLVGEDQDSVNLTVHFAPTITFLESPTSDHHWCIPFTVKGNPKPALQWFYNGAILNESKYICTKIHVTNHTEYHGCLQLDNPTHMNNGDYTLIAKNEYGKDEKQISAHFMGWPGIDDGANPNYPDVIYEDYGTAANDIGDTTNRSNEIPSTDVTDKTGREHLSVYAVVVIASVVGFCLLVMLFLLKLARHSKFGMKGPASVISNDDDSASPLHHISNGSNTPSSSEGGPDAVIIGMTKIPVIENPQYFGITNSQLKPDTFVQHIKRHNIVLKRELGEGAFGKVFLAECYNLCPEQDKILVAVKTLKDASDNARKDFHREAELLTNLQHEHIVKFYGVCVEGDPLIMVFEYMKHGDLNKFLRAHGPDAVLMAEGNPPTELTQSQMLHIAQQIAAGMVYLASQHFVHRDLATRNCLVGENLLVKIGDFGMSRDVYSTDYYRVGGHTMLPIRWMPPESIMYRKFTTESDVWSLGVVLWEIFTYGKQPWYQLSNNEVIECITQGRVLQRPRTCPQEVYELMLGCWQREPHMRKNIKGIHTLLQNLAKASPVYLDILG
Method: (§3) Compounds of the invention are assessed for their ability to inhibit individual members of a panel of kinases (a partial, non-limiting list of kinases includes: BMX, CSK, TrkB, FGFR3, Fes, Lck, B-RAF, C-RAF, MKK6, SAPK2α and SAPK2β). The compounds are tested in duplicates at a final concentration of 10 μM following this generic protocol. Note that the kinase buffer composition and the substrates vary for the different kinases included in the “Upstate KinaseProfiler™” panel. Kinase buffer (2.5 μL, 10×—containing MnCl2 when required), active kinase (0.001-0.01 Units; 2.5 μL), specific or Poly(Glu4-Tyr) peptide (5-500 μM or 0.01 mg/ml) in kinase buffer and kinase buffer (50 μM; 5 μL) are mixed in an eppendorf on ice. […] The assay squares are transferred to a scintillation vial, 5 ml scintillation cocktail are added and ^32P incorporation (cpm) to the peptide substrate is quantified with a Beckman scintillation counter. Percentage inhibition is calculated for each reaction.

Fes = molecular target: T3, Fes (Homo sapiens, UniProt P07332); experiment: Upstate KinaseProfiler radio-enzymatic filter binding assay, Fes; type: biochemical; conditions: at a concentration of 10 μM; read-out: percentage inhibition of Fes
T3 construct: purchased Upstate (KinaseProfiler panel)
T3 sequence (P07332 whole entry): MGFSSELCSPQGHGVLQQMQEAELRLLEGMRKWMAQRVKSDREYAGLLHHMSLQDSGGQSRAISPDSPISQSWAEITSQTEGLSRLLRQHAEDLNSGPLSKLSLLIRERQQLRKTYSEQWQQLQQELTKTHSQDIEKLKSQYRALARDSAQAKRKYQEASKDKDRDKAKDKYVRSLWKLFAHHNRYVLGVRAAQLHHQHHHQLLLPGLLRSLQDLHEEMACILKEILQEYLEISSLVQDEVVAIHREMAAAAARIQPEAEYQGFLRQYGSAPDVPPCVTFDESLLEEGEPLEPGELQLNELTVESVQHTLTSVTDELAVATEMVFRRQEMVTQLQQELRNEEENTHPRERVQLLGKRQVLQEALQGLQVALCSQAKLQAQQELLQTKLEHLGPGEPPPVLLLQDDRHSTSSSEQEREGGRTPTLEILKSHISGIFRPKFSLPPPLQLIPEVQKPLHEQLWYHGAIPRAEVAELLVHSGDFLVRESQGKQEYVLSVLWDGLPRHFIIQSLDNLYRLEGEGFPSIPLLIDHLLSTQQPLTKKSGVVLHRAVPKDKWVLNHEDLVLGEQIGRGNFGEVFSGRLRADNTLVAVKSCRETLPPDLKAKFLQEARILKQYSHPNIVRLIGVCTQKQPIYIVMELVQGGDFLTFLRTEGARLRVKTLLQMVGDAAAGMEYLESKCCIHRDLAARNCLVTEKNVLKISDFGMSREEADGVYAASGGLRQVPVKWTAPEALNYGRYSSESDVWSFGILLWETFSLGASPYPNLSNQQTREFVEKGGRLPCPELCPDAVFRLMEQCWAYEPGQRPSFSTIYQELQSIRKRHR
Method: as §3

M351T BCR-Abl = molecular target: T4, M351T BCR-Abl (Homo sapiens, UniProt P00519, M351T); experiment: Antiproliferative effect on Ba/F3 cells expressing M351T BCR-Abl; type: cell-based; conditions: Ba/F3 cells expressing M351T mutant
T4 construct: expressed in transfected cells; host or cells: Ba/F3; the other entry of the earlier key: BCR (P11274, Breakpoint cluster region protein)
Method: as §1, §2

SAPK2β = molecular target: T5, SAPK2β (Homo sapiens, UniProt Q15759); experiment: Upstate KinaseProfiler radio-enzymatic filter binding assay, SAPK2β; type: biochemical; conditions: at a concentration of 10 μM; read-out: percentage inhibition of SAPK2β
T5 construct: purchased Upstate (KinaseProfiler panel)
T5 sequence (Q15759 whole entry): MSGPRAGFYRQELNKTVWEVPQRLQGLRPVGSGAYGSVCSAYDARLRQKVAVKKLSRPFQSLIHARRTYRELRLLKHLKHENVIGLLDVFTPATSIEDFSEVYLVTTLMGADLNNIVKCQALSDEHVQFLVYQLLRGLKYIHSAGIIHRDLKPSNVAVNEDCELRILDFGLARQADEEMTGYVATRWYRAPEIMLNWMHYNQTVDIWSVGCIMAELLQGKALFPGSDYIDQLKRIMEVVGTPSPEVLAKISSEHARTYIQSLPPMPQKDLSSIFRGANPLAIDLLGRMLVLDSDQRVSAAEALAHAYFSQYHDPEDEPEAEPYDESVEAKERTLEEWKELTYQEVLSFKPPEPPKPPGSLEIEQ
Method: as §3

wild type BCR-Abl = molecular target: T6, wild type BCR-Abl (Homo sapiens, UniProt P00519); experiment: Antiproliferative effect on Ba/F3 cells expressing wild type BCR-Abl; type: cell-based
T6 construct: expressed in transfected cells; host or cells: Ba/F3; the other entry of the earlier key: BCR (P11274, Breakpoint cluster region protein)
Method: as §1, §2

F317L BCR-Abl = molecular target: T7, F317L BCR-Abl (Homo sapiens, UniProt P00519, F317L); experiment: Antiproliferative effect on Ba/F3 cells expressing F317L BCR-Abl; type: cell-based; conditions: Ba/F3 cells expressing F317L mutant
T7 construct: expressed in transfected cells; host or cells: Ba/F3; the other entry of the earlier key: BCR (P11274, Breakpoint cluster region protein)
Method: as §1, §2

T315I BCR-Abl = molecular target: T8, T315I BCR-Abl (Homo sapiens, UniProt P00519, T315I); experiment: Antiproliferative effect on Ba/F3 cells expressing T315I BCR-Abl; type: cell-based; conditions: Ba/F3 cells expressing T315I mutant
T8 construct: expressed in transfected cells; host or cells: Ba/F3; the other entry of the earlier key: BCR (P11274, Breakpoint cluster region protein)
T8 sequence (P00519 229-512 T315I limits assumed): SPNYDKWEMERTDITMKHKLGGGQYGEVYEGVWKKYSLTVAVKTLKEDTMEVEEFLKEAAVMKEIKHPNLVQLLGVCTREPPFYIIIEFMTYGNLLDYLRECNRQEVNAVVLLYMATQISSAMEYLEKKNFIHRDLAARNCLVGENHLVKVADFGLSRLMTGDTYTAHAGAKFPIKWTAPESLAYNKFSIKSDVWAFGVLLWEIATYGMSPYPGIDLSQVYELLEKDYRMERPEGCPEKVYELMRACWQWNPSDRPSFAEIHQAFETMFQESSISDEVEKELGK
Method: as §1, §2

Bmx = molecular target: T9, Bmx (Homo sapiens, UniProt P51813); experiment: Upstate KinaseProfiler radio-enzymatic filter binding assay, Bmx; type: biochemical; conditions: at a concentration of 10 μM; read-out: percentage inhibition of Bmx
T9 construct: purchased Upstate (KinaseProfiler panel)
T9 sequence (P51813 1-675): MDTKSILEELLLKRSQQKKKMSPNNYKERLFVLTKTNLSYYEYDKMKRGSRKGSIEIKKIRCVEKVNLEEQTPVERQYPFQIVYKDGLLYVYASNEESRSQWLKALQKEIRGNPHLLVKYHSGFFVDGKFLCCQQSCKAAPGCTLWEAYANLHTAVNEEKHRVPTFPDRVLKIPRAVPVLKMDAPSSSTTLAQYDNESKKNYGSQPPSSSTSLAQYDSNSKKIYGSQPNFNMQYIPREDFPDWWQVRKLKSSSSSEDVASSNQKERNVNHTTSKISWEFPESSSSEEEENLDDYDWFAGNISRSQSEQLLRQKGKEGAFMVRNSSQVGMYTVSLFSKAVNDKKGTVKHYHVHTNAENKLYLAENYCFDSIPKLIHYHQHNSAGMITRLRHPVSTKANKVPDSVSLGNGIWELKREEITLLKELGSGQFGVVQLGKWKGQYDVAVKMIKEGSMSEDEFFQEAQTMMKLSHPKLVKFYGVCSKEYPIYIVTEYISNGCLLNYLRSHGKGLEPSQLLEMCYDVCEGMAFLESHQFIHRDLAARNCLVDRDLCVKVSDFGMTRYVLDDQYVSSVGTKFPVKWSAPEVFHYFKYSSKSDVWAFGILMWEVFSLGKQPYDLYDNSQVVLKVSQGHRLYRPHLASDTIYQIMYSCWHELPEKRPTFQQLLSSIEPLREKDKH
Method: as §3

CSK = molecular target: T10, CSK (Homo sapiens, UniProt P41240); experiment: Upstate KinaseProfiler radio-enzymatic filter binding assay, CSK; type: biochemical; conditions: at a concentration of 10 μM; read-out: percentage inhibition of CSK
T10 construct: purchased Upstate (KinaseProfiler panel)
T10 sequence (P41240 whole entry): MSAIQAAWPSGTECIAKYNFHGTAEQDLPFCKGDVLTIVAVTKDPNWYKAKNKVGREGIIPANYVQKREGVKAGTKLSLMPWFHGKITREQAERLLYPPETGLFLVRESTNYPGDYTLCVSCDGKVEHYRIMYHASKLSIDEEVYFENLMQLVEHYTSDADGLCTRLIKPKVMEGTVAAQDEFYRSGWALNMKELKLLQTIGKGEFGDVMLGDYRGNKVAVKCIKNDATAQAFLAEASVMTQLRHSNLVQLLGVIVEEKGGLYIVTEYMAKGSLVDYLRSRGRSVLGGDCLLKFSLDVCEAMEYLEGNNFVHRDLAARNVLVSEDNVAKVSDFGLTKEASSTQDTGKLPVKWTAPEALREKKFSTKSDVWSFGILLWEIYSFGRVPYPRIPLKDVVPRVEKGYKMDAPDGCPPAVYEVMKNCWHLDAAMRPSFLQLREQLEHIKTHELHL
Method: as §3

B-RAF = B-RAF (Homo sapiens, UniProt P15056); experiment: B-RAF kinase inhibition assay (IκBα substrate); type: biochemical; conditions: 20 μM ATP
Method: Compounds of the invention are tested for their ability to inhibit the activity of B-RAF. The assay is carried out in 384-well MaxiSorp plates (NUNC) with black walls and clear bottom. The substrate, IκBα is diluted in DPBS (1:750) and 15 μL is added to each well. The plates are incubated at 4° C. overnight and washed 3 times with TBST (25 mM Tris, pH 8.0, 150 mM NaCl and 0.05% Tween-20) using the EMBLA plate washer. Plates are blocked by Superblock (15 μL/well) for 3 hours at room temperature, washed 3 times with TBST and pat-dried. Assay buffer containing 20 μM ATP (10 μL) is added to each well followed by 100 nL or 500 nL of compound. B-RAF is diluted in the assay buffer (1 μL into 25 μl) and 10 μL of diluted B-RAF is added to each well (0.4 μg/well). The plates are incubated at room temperature for 2.5 hours. The kinase reaction is stopped by washing the plates 6 times with TBST. Phosph-IκBα (Ser32/36) antibody is diluted in Superblock (1:10,000) and 15 μL is added to each well. The plates are incubated at 4° C. overnight and washed 6 times with TBST. AP-conjugated goat-anti-mouse IgG is diluted in Superblock (1:1,500) and 15 μL is added to each well. Plates are incubated at room temperature for 1 hour and washed 6 times with TBST. […] Plates are read on Acquest or Analyst GT using a Fluorescence Intensity Nanxin BBT anion (505 dichroic mirror).

E255V BCR-Abl = molecular target: T11, E255V BCR-Abl (Homo sapiens, UniProt P00519, E255V); experiment: Antiproliferative effect on Ba/F3 cells expressing E255V BCR-Abl; type: cell-based; conditions: Ba/F3 cells expressing E255V mutant
T11 construct: expressed in transfected cells; host or cells: Ba/F3; the other entry of the earlier key: BCR (P11274, Breakpoint cluster region protein)
Method: as §1, §2

Lck = molecular target: T12, Lck (Homo sapiens, UniProt P06239); experiment: Upstate KinaseProfiler radio-enzymatic filter binding assay, Lck; type: biochemical; conditions: at a concentration of 10 μM; read-out: percentage inhibition of Lck
T12 construct: purchased Upstate (KinaseProfiler panel)
T12 sequence (P06239 whole entry): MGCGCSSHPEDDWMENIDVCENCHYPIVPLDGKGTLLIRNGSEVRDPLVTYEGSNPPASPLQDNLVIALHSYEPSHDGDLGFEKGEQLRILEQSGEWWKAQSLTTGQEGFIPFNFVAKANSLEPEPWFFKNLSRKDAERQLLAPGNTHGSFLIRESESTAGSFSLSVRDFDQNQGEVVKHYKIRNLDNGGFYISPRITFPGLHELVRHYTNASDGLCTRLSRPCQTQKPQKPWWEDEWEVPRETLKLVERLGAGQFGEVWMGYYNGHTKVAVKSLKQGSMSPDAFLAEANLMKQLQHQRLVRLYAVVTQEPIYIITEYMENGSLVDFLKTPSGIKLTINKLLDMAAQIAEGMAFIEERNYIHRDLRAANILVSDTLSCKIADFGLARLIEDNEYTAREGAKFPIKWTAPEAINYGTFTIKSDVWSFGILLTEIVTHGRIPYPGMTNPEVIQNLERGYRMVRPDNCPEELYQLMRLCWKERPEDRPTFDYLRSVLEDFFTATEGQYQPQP
Method: as §3

c-Raf = molecular target: T13, c-Raf (Homo sapiens, UniProt P04049); experiment: Upstate KinaseProfiler radio-enzymatic filter binding assay, c-Raf; type: biochemical; conditions: at a concentration of 10 μM; read-out: percentage inhibition of c-Raf
T13 construct: purchased Upstate (KinaseProfiler panel)
T13 sequence (P04049 whole entry): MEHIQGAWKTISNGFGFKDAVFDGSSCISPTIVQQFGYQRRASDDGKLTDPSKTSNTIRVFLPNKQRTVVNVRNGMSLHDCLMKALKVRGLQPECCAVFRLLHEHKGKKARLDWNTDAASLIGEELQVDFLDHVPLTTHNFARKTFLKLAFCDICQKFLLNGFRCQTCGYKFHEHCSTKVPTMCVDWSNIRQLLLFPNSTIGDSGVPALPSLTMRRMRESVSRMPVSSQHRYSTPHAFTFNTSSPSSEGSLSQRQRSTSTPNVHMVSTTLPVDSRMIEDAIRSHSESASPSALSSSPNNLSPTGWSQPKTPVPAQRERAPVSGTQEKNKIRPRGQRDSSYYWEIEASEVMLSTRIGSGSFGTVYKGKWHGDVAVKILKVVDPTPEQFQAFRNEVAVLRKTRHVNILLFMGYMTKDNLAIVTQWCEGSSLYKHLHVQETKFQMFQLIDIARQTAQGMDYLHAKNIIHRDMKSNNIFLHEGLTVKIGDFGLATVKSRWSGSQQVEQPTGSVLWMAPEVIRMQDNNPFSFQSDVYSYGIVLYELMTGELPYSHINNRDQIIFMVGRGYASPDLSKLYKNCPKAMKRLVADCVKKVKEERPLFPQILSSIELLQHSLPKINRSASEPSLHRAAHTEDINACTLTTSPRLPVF
Method: as §3

SAPK2α = molecular target: T14, SAPK2α (Homo sapiens, UniProt Q16539); experiment: Upstate KinaseProfiler radio-enzymatic filter binding assay, SAPK2α; type: biochemical; conditions: at a concentration of 10 μM; read-out: percentage inhibition of SAPK2α
T14 construct: purchased Upstate (KinaseProfiler panel)
T14 sequence (Q16539 whole entry): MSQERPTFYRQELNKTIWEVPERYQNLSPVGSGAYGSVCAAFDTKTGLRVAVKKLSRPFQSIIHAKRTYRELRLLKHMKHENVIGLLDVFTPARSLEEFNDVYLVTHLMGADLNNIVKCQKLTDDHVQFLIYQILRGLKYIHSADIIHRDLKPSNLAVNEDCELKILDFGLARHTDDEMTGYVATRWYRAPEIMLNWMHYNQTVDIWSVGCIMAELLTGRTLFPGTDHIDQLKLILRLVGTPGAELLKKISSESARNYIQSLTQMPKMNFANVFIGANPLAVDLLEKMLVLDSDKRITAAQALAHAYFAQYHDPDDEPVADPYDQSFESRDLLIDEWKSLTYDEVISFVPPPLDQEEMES
Method: as §3

MKK6 = molecular target: T15, MKK6 (Homo sapiens, UniProt P52564); experiment: Upstate KinaseProfiler radio-enzymatic filter binding assay, MKK6; type: biochemical; conditions: at a concentration of 10 μM; read-out: percentage inhibition of MKK6
T15 construct: purchased Upstate (KinaseProfiler panel)
T15 sequence (P52564 1-334): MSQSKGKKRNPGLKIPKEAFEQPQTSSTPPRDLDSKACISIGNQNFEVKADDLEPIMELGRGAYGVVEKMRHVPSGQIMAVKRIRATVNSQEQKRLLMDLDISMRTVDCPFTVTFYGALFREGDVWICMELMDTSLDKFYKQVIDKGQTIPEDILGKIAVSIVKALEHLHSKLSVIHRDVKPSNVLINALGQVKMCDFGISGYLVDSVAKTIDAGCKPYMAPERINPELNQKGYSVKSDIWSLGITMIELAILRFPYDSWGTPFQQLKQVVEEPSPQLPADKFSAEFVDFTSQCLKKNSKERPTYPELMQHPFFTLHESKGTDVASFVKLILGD
Method: as §3

FGFR3 = molecular target: T16, FGFR3 (Homo sapiens, UniProt P22607); experiment: Upstate KinaseProfiler radio-enzymatic filter binding assay, FGFR3; type: biochemical; conditions: at a concentration of 10 μM; read-out: percentage inhibition of FGFR3
T16 construct: purchased Upstate (KinaseProfiler panel)
T16 sequence (P22607 23-806): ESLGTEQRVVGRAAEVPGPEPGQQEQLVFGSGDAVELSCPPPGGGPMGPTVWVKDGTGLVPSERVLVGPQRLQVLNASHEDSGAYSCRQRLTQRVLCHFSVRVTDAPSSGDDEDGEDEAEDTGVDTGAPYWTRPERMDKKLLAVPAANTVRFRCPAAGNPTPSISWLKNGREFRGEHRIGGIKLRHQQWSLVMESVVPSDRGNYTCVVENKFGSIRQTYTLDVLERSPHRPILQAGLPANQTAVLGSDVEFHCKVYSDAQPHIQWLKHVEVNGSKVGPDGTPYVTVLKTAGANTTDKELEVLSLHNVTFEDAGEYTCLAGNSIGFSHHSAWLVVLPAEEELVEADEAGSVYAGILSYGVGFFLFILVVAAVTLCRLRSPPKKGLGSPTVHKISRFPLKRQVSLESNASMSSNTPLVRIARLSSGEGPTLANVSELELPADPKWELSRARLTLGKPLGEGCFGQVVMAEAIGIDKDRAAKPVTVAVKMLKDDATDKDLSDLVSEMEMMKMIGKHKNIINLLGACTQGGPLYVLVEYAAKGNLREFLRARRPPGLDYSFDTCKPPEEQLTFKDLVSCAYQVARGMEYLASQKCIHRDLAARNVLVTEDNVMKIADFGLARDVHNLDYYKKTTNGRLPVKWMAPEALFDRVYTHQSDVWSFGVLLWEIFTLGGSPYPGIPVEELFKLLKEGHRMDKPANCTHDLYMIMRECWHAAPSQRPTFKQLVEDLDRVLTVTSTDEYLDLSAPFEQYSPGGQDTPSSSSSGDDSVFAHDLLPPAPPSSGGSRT
Method: as §3

Row | SMILES | IC50 (G250E BCR-Abl) [µM] | inhibition at 10 µM (TrkB) [%] | inhibition at 10 µM (Fes) [%] | IC50 (M351T BCR-Abl) [µM] | inhibition at 10 µM (SAPK2β) [%] | IC50 (wild type BCR-Abl) [µM] | IC50 (F317L BCR-Abl) [µM] | IC50 (T315I BCR-Abl) [µM] | inhibition at 10 µM (Bmx) [%] | inhibition at 10 µM (CSK) [%] | IC50 (B-RAF) [µM] | IC50 (E255V BCR-Abl) [µM] | inhibition at 10 µM (Lck) [%] | inhibition at 10 µM (c-Raf) [%] | inhibition at 10 µM (SAPK2α) [%] | inhibition at 10 µM (MKK6) [%] | inhibition at 10 µM (FGFR3) [%]
1 | Cc1cn(-c2cc(C(=O)Nc3ccc(C)c(NC(=O)n4ccc5c(Nc6cccc(N(C)C)c6)ncnc54)c3)cc(C(F)(F)F)c2)cn1 [Example 3, 4-(3-Dimethylamino-phenylamino)-pyrrolo[2,3-d]pyrimidine-7-carboxylic acid {2-methyl-5-[3-(4-methyl-imidazol-1-yl)-5-trifluoromethyl-benzoylamino]-phenyl}-amide] | 0.17 | 100 | 82 | 0.029 | 95 | 0.022 | 0.05 | 0.37 | 100 | 90 | 0.032 | 0.22 | 95 | 83 |  |  | 
2 | Cc1cn(-c2cc(C(=O)Nc3ccc(C)c(NC(=O)n4ccc5c(Nc6cccc(C(N)=O)c6)ncnc54)c3)cc(C(F)(F)F)c2)cn1 [Example 7, 4-(3-Carbamoyl-phenylamino)-pyrrolo[2,3-d]pyrimidine-7-carboxylic acid {2-methyl-5-[3-(4-methyl-imidazol-1-yl)-5-trifluoromethyl-benzoylamino]-phenyl}-amide] | 0.047 | 98 | 98 | 0.005 | 100 | 0.005 | 0.009 | 0.115 | 100 | 100 |  | 0.031 | 96 | 99 | 100 | 98 | 95
